In brackets after ≈: the same amount, converted by molar mass.
What was measured:
Assay type in all cases: functional, cell-based
Settings in all cases: Homo sapiens
[1] = tested on: A549; experiment: Inhibitory concentration against A549 (lung cancer) cell line
[2] = tested on: HeLa; experiment: Inhibitory concentration against HeLa (cervical cancer) cell line
[3] = tested on: K562; experiment: Inhibitory concentration against K562 (leukemia) cell line
[4] = tested on: DLD-1; experiment: Inhibitory concentration against DLD-1 (colon cancer) cell line

| Structure (SMILES) | IC50 [1] [ng/mL] | IC50 [2] [ng/mL] | IC50 [3] [ng/mL] | IC50 [4] [ng/mL] |
| --- | --- | --- | --- | --- |
| COc1cc2c3c(c4ccc(O)c(OC)c4c2cc1OC)[C@H](O)[C@@H]1CCCN1C3 | 0.5 (≈ 1.26 nM) | 0.1 (≈ 0.253 nM) | 0.5 (≈ 1.26 nM) | 0.8 (≈ 2.02 nM) |
| COc1cc2c3c(c4ccc(O)cc4c2cc1OC)[C@H](O)[C@@H]1CCCN1C3 [TYLOPHORIDICINE E] | 0.4 (≈ 1.09 nM) | 0.8 (≈ 2.19 nM) | 0.4 (≈ 1.09 nM) | 0.5 (≈ 1.37 nM) |
